Laboratory results as given in ChEMBL document CHEMBL2401704, “Inhibition of rhodesain as a novel therapeutic modality for human African trypanosomiasis” (J Med Chem, 2013).
In brackets after ≈: the same amount, converted by molar mass. Residues, ends and D or L forms follow the SMILES beside them. *: point of attachment. Cbz = O=C(OCc1ccccc1)*

Experiments:
Trypanosoma brucei = test: Inhibition of Trypanosoma brucei rhodesain assessed as second order rate constant
[1] = system: Trypanosoma brucei brucei; test: Antitrypanosomal activity against blood stream form of Trypanosoma brucei brucei; format: functional, organism-based; conditions: for EC50: read-out: ED50 (the source's name)
[2] = Selectivity index, ratio of ED50 for human HL60 cells to ED50 for Trypanosoma brucei brucei; format: toxicity, cell-based, HL-60; conditions: read-out: Ratio ED50
[3] = Cytotoxicity against human HL60 cells; format: cell-based, HL-60; conditions: for CC50: read-out: ED50 (the source's name); for MCC: read-out: MIC
[4] = Oral bioavailability in Sprague-Dawley rat; format: ADME, organism-based; conditions: in vivo
[5] = system: Trypanosoma brucei brucei; test: Antitrypanosomal activity against procyclic form of Trypanosoma brucei brucei; format: functional; conditions: read-out: ED50 (the source's name)
[6] = Inhibition of Trypanosoma brucei recombinant rhodesain
Trypsin = Trypsin (Homo sapiens, UniProt P07477+P07478+P35030); test: Inhibition of trypsin (unknown origin); format: protein assay
[7] = Inhibition of cathepsin B (unknown origin); set-up: species or system Homo sapiens
[8] = Inhibition of Trypanosoma brucei rhodesain
Papain = target: T1, Papain (Carica papaya, UniProt P00784); test: Inhibition of papaya papain
T1 sequence (P00784 whole entry): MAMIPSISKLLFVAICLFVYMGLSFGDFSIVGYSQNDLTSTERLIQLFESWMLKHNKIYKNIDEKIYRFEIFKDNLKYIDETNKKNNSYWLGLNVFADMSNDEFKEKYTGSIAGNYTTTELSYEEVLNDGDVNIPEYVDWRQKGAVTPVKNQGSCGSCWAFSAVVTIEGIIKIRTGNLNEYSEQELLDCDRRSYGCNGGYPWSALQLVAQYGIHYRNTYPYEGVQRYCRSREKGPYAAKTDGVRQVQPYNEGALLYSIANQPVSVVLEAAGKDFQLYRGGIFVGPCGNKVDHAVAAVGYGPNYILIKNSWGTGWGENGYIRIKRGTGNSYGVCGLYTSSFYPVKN

Cruzipain = Cruzipain (Trypanosoma cruzi, UniProt P25779); test: Inhibition of Trypanosoma cruzi cruzain
Cruzipain, sequence (P25779 whole entry): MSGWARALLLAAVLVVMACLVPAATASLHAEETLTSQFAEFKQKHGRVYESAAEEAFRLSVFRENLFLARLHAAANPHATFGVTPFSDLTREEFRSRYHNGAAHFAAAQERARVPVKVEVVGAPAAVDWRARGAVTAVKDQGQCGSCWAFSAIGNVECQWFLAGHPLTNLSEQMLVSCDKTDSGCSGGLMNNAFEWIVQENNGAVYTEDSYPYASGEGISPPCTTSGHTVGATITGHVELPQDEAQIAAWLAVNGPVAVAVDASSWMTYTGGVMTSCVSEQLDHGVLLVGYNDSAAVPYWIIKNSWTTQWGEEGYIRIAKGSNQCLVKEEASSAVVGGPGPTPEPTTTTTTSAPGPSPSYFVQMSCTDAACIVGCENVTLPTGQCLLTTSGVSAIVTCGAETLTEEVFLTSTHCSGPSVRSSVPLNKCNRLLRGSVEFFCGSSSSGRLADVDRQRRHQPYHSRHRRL

SMILES | K (Trypanosoma brucei) | MIC [1] | EC50 [1] | bioavailability [4] | EC50 [5] | selectivity ratio [2] | CC50 [3] | MCC [3] | IC50 [6] | other results
O=C[C@H](Cc1ccc(O)cc1)NC(=O)[C@H](Cc1ccccc1)NC(=O)OCc1ccccc1 (Cbz-Phe-Tyr-aldehyde) | 1.38 ×10⁸ /M/min | 100 µM (≈ 44.7 µg/mL) | 0.045 µM |  |  | 482 | 21.5 µM | > 100 µM |  | 
CN1CCN(C(=O)N[C@@H](Cc2ccccc2)C(=O)N[C@H](/C=C/S(=O)(=O)c2ccccc2)CCc2ccccc2)CC1 [K-777] | 9 ×10⁶ /M/min |  | 0.9 µM | 19.9% | 5.8 µM |  |  |  | 0.00035 µM | 
O=C(N[C@H](/C=C/S(=O)(=O)c1ccccc1)CCc1ccccc1)[C@H](Cc1ccccc1)NC(=O)N1CCOCC1 |  |  | 5.6 µM | 3% | 7.3 µM |  |  |  | 0.00036 µM | 
Cn1nc(C(F)(F)F)cc1-c1ccc(NC(=O)Nc2cccc(C(F)(F)F)c2)s1 |  |  |  |  |  |  |  |  |  | IC50 (Trypsin): > 50 µM; IC50 [7]: 11 µM; IC50 [8]: 3 µM; IC50 (Papain): > 50 µM; IC50 (Cruzipain): 3.1 µM

Now from value to compound, other results behind:

K (Trypanosoma brucei) | MIC [1] | EC50 [1] | bioavailability [4] | EC50 [5] | SMILES | selectivity ratio [2] | CC50 [3] | MCC [3] | IC50 [6] | other results
 |  | 0.13 µM |  |  | Cc1ccc(C(=O)Nc2ccc(S(=O)(=O)O)c3cc(S(=O)(=O)O)cc(S(=O)(=O)O)c23)cc1NC(=O)c1cccc(NC(=O)Nc2cccc(C(=O)Nc3cc(C(=O)Nc4ccc(S(=O)(=O)O)c5cc(S(=O)(=O)O)cc(S(=O)(=O)O)c45)ccc3C)c2)c1 [SURAMIN] | 1900 |  |  |  | 
3.54 ×10⁷ /M/min | 10 µM (≈ 4.92 µg/mL) | 0.018 µM |  |  | CC[C@H](C)[C@H](NS(=O)(=O)c1cccc2ccccc12)C(=O)N[C@H](C=O)Cc1c[nH]c2ccccc12 | 1150 | 21 µM | > 100 µM |  | 
